Results reported in patent US20220087952A1, “ANTI-APICOMPLEXAN COMPOSITIONS” (priority 2019, published 2022).

Experiments:
[1] = test system: Eimeria arloingi oocyst extracted from goat feces; test: In-vitro oocyst sporulation assay (Example 2); format: cell-based; conditions: in Capra hircus, read-out: sporulation impairment (inhibition of sporulation) compared to control
Experimental: Eimeria-infected feces were collected from goats and stored at 4° C. Later, 3 grams of feces were mixed with 42 ml of tap water. The sample was homogenized and passed through a mesh, after which the filtered liquid was collected into 50 ml tubes. The liquid was then washed three times with cold tap water and centrifuged (1,700 G, 5 minutes, 20° C.). In each wash, the supernatant was carefully removed and approximately 30 to 40 ml of cold water was added. After the last wash, the water was removed and replaced with saturated sugar flotation solution (500 gr sucrose in 320 ml double distilled water), wherein each tube was filled with up to 45 ml of the sugar flotation solution. Each tube was centrifuged twice, wherein after each round of centrifugation, the ring-shaped phase formed on the top of the sugar solution was collected (about 1-2 ml collected after each round) and preserved in a 50 ml plastic tube.
The plastic tube was filled with cold water and centrifuged again. Oocysts were found in the sediment after centrifugation. The water was gently removed and the concentration of the oocysts was evaluated. The oocysts were then stored at 4° C. until use (the use of unsporulated oocysts that are older than two weeks was avoided). It is noted that a 2% potassium dichromate solution may be used for conservation. The unsporulated oocytes were washed in cold phosphate buffered saline (PBS, X10) before use in order to remove potassium dichromate (if used). The concentration of the oocysts was adjusted to approximately 30,000/ml.
Extract was prepared according to Example 1 above. Extract can be mixed with Phosphate buffer saline (PBS, X1, w:w, 1:10) if not perfectly soluble in water.
Each assay was in triplicates for each concentration of extract and gallic acid purchased at Sigma. In addition, six concentrations of gallic acid (50, 150, 250, 350, 450, 550 ppm) were added to 2000 and 4000 ppm of the invention extract to check synergism of gallic acid and the extract on impairment of sporulation. […]

[2] = test system: Eimeria spp. (Paracox 5 at twenty-fold dose); test: Eimeria-infected chicks given supplemented drinking water (Example 5); format: in vivo; conditions: for Body weight of chicks (Means ± SE) / Average daily gain / Oocyst counts in droppings: C uninfected, T infected, AS % antisolvent, GA ppm gallic acid in water
Experimental: 160 chicks allotted to 8 treatments, encompassing two groups of uninfected birds and six groups of Eimeria-infected birds, were tested. Birds were administered water treatment from 7 days of age and infected when 10-days old.
Inoculation was individually, per os, by using a dose of Paracox 5, a live attenuated anticoccidial vaccine including administered at the twenty-fold the recommended dose (Table 2), in a volume of 1 ml, when chicks were 10 days old. Uninfected birds were given the same volume of saline. Eimeria spp were as in Table 2.
(§1) Water was supplied in 3-liter poultry troughs that were re-filled when needed. Tap water was initially given and water supplementation was initiated three days after chicks' arrival. Water treatments for the uninfected (C) birds were no antisolvent and no gallic acid (C_AS0%_GA0) and 1% antisolvent with 500 ppm of gallic acid (C_AS1%_GA500).
(§2) Water treatments for the infected (T) birds were bi-factorial with 3 levels of antisolvent (AS; 0, 0.5, and 1%) and two levels of gallic acid (GA; 0 and 500 ppm) resulting in 6 groups: […], T_AS0.5%_GA0, T_AS1%_GA0, T_AS0.5%_GA0, T_AS0.5% _GA500, and T_AS1%_GA500.
(§3) Birds were wing-tagged and weighed on infection day and then, 7 days after infection. Half of the birds were weighed and humanely euthanized by exposure to CO2 on day 14 after infection and the second half on day 17 after infection. Water intake was recorded. Droppings were collected from a 1 m^2 paper sheet placed in each group 12 h before each weighing and kept at 4° C. until oocysts were counted under a grated microscope at ×100 and ×400 at days 0, and 7.
No existing method, based on mono-species Eimeria infection, was satisfactory. The duodenum was examined at three sites (proximal, medial, distal) and a separate score was recorded for each. In contrast, only one score was recorded for the ileum-jejunum, and one for the caeca. Organ scores were termed D (average of 3 sites along the duodenum), J, and C. Three composite scores were established: a. sum of the average duodenal score, the jejunal score and the caecal score; b. sum of the maximal duodenal, jejunal and caecal scores; c. number of lesion-affected organs (1-3).
Data for body weight (BW) and average daily gain was log-transformed in order to homogenize variances. The C_AS0%_GA0 and […] in order to assess the effect of infection. The C_AS0%_GA0 and the C_AS1%_GA500 were compared to evaluate possible toxicity due to water treatment. All groups encompassing bi-factorial levels of AS and GA were compared by bi-factorial ANOVA.
For the analysis of lesions, for each treatment and slaughter day, the Wilcoxon Rank Sum Test was run. Then, using the Iman-Connover method, a rank transformation was done on original data and a two-way ANOVA was run on the ranked data. The treatment x day interaction was significant for J. Sum DJC, and #organs affected and Pairwise comparisons were made by Tukey test.

[3] = Water intake and toxicity of supplemented drinking water in chicks (Example 5); format: in vivo
Source text: as §1, §2, §3
Data for body weight (BW) and average daily gain was log-transformed in order to homogenize variances. The C_AS0%_GA0 and […] in order to assess the effect of infection. The C_AS0%_GA0 and the C_AS1%_GA500 were compared to evaluate possible toxicity due to water treatment. […]

[4] = test system: Eimeria spp. (Paracox 5 at twenty-fold dose); test: Eimeria-infected chicks given supplemented drinking water (Example 5); format: in vivo; conditions: d 14 relative to infection day; C uninfected, T infected; AS % antisolvent, GA ppm gallic acid in water

SMILES | inhibition at 50 µg/mL [1] [%] | Body weight of chicks (Means ± SE) ([2]; D 17 relative to infection day) [ab] | Average daily gain ([2]; Days 0-7) [g/day] | Average daily gain ([2]; Days 8-14) [g/day] | Average daily gain ([2]; Days 14-17) [g/day] | Body weight of chicks (Means ± SE) ([2]; d 0 relative to infection day) | Oocyst counts in droppings ([2]; d 0 relative to infection day) [gr^−1] | Body weight of chicks (Means ± SE) ([2]; d 7 relative to infection day) [a] | Oocyst counts in droppings ([2]; d 7 relative to infection day) | Body weight of chicks (Means ± SE) ([2]; d 14 relative to infection day) [ab] | growth performance / body weight of Eimeria-infected birds, in words ([2]; water treatment from 7 days of age, infection at 10 days, dose in label) | Water intake ([3]; code: C uninfected, T infected, AS % antisolvent (0.5% = 5,000 ppm, 1% = 10,000 ppm), GA ppm gallic acid in water) [ml chick^−1 dr^−1] | signs of toxicity ([3]; in vivo) | Oocyst counts in droppings [4]
COc1cc(C(=O)O)ccc1O [vanillic acid] | 23 |  |  |  |  |  |  |  |  |  |  |  |  | 
O=C(O)/C=C/c1ccc(O)c(O)c1 [caffeic acid, Caffeic acid] | 43 |  |  |  |  |  |  |  |  |  |  |  |  | 
O=C(O)c1cc(O)c(O)c(O)c1 [Gallic acid, gallic acid] | 25 | 1290.0 ± 83.4 | 32.9 ± 1.4 | 53.2 ± 2.5 | 99.9 ± 6.2 | 168.9 ± 4.3 | 0 | 399.5 ± 13.4 | 10,650 gr^−1 | 984.4 ± 40.1 | no advantage in adding gallic acid if an AS treatment was given | 132 | No signs of toxicity whatsoever | 3,600 gr^−1
